37 molecules from patent US20180251431A1 (VERTEX PHARMACEUTICALS INCORPORATED, priority 2016, published 2018) can be followed below.

For the first assay, the system named is HEK293 cells. Briefly: HEK293 VLCFA-LPC IC50 determination (13C-labeled C26:0 LPC by UHPLC/MS). The following applies: Homo sapiens, HEK293, 48 h, average of one or more replicates; 13C-labeled C26:0 LPC, 48 hours; read-out: Average HEK293 IC50. It is filed as cell-based, human. The gist of the method:
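Suspension HEK293 cells (final 0.5 million/mL after mixing with equal volume) incubated 48 hours with compound plus 13C-acetate (1.0 mg/mL in added media), shaking at 37° C. Lipids extracted with hexane/isopropanol or methanol, C13:0 LPC standard. UHPLC/MS of 13C-labeled C26:0 LPC (638.500/104.100 m/z); IC50 by four-parameter fit.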
Take `O=C(Nc1ccn(-c2cnc(C(F)(F)F)nc2)n1)C1(c2ccccc2F)CC1` [Compound 381, 1-(2-fluorophenyl)-N-[1-[2-(trifluoromethyl)pyrimidin-5-yl]pyrazol-3-yl]cyclopropanecarboxamide]: the IC50 (usually the concentration that inhibits the measured activity by half) is over 5000 nM. Consider `CC(C)(O)c1ncc(-n2ccc(NC(=O)C3(c4ccccc4F)CC3)n2)cn1` [Compound 382, 1-(2-fluorophenyl)-N-[1-[2-(1-hydroxy-1-methyl-ethyl)pyrimidin-5-yl]pyrazol-3-yl]cyclopropanecarboxamide], for which the half-inhibitory concentration (IC50) was over 5000 nM.

Regarding `CC(C)(C)c1ncc(-n2ccc(NC(=O)C3(c4ccccc4F)CC3)n2)cn1` [Compound 383, N-[1-(2-tert-butylpyrimidin-5-yl)pyrazol-3-yl]-1-(2-fluorophenyl)cyclopropanecarboxamide], the IC50 was over 5000 nM. `Nc1c(F)cc(-n2ccc(NC(=O)C3(c4ccccc4F)CC3)n2)cc1F` [Compound 384, N-[1-(4-amino-3,5-difluoro-phenyl)pyrazol-3-yl]-1-(2-fluorophenyl)cyclopropanecarboxamide]: the IC50 was found to be 980 nM. As to `Nc1cc(-n2ccc(NC(=O)C3(c4ccccc4F)CC3)n2)ccc1F` [Compound 385, N-[1-(3-amino-4-fluoro-phenyl)pyrazol-3-yl]-1-(2-fluorophenyl)cyclopropanecarboxamide], the IC50 came to 1400 nM. Same read-out and setting: the value for `Nc1ccc(-n2ccc(NC(=O)C3(c4ccccc4F)CC3)n2)cc1F` [Compound 387, N-[1-(4-amino-3-fluoro-phenyl)pyrazol-3-yl]-1-(2-fluorophenyl)cyclopropanecarboxamide] was 1100 nM. `O=C(Nc1ccn(-c2cnns2)n1)C1(c2ccccc2F)CC1` [Compound 388, 1-(2-fluorophenyl)-N-[1-(thiadiazol-5-yl)pyrazol-3-yl]cyclopropanecarboxamide]: the half-inhibitory concentration (IC50) stood at 37 nM. With `O=C(Nc1ccn(-c2ncc(F)cc2F)n1)C1(c2ccccc2F)CC1` [Compound 391, N-(1-(3,5-difluoropyridin-2-yl)-1H-pyrazol-3-yl)-1-(2-fluorophenyl)cyclopropane-1-carboxamide], the IC50 came to 190 nM. On to `O=C(Nc1ccn(-c2ccc(Cl)cn2)n1)C1(c2ccccc2F)CC1` [Compound 398, N-(1-(5-chloropyridin-2-yl)-1H-pyrazol-3-yl)-1-(2-fluorophenyl)cyclopropane-1-carboxamide], for which the 50% inhibitory concentration (IC50) is over 5000 nM. Consider `Cc1cc(-n2ccc(NC(=O)C3(c4ccccc4F)CC3)n2)sn1` [Compound 401, 1-(2-fluorophenyl)-N-[1-(3-methylisothiazol-5-yl)pyrazol-3-yl]cyclopropanecarboxamide], for which the concentration for half-maximal inhibition (IC50) came to 2300 nM.

`O=C(Nc1ccn(-c2ccsn2)n1)C1(c2ccccc2F)CC1` [Compound 402, 1-(2-fluorophenyl)-N-(1-isothiazol-3-ylpyrazol-3-yl)cyclopropanecarboxamide]: the IC50 turned out to be 60 nM.

Turning to `Cc1nn(C)cc1-n1ccc(NC(=O)C2(c3ccccc3F)CC2)n1` [Compound 403, N-[1-(1,3-dimethylpyrazol-4-yl)pyrazol-3-yl]-1-(2-fluorophenyl)cyclopropanecarboxamide], the IC50 was over 5000 nM.

Turning to `Cc1nnc(-n2ccc(NC(=O)C3(c4ccccc4F)CC3)n2)s1` [Compound 404, 1-(2-fluorophenyl)-N-[1-(5-methyl-1,3,4-thiadiazol-2-yl)pyrazol-3-yl]cyclopropanecarboxamide], the 50% inhibitory concentration (IC50) is over 5000 nM. In the case of `O=C(Nc1ccn(-c2ncns2)n1)C1(c2ccccc2F)CC1` [Compound 406, 1-(2-fluorophenyl)-N-[1-(1,2,4-thiadiazol-5-yl)pyrazol-3-yl]cyclopropanecarboxamide], the IC50 was determined as 18 nM.

The same assay, now with this note: Homo sapiens, HEK293, HEK293 cells; average of one or more replicates; read-out: Average HEK293 IC50.
Regarding `Cc1cc(NC(=O)C2(c3ccccc3F)CC2)nn1-c1ccccc1` [Compound 386, 1-(2-fluorophenyl)-N-(5-methyl-1-phenyl-1H-pyrazol-3-yl)cyclopropane-1-carboxamide], the IC50 was over 5000 nM. As to `COc1ccccc1C1(C(=O)Nc2ccn(-c3ccnc(F)c3)n2)CC1` [Compound 389, N-[1-(2-fluoro-4-pyridyl)pyrazol-3-yl]-1-(2-methoxyphenyl)cyclopropanecarboxamide], the IC50 was over 5000 nM.

Consider `Cn1cnc(-n2ccc(NC(=O)C3(c4ccccc4F)CC3)n2)c1` [Compound 392, 1-(2-fluorophenyl)-N-(1-(1-methyl-1H-imidazol-4-yl)-1H-pyrazol-3-yl)cyclopropane-1-carboxamide], for which the IC50 is over 5000 nM. Consider `Nc1cc(-n2ccc(NC(=O)C3(c4ccccc4F)CC3)n2)ccn1` [Compound 393, N-[1-(2-amino-4-pyridyl)pyrazol-3-yl]-1-(2-fluorophenyl)cyclopropanecarboxamide], for which the half-inhibitory concentration (IC50) came out at 1900 nM.

Take `CN(C)c1ccc(-n2ccc(NC(=O)C3(c4ccccc4F)CC3)n2)cn1` [Compound 394, N-[1-[6-(dimethylamino)-3-pyridyl]pyrazol-3-yl]-1-(2-fluorophenyl)cyclopropanecarboxamide]: the IC50 was over 5000 nM. `O=C(Nc1ccn(-c2ccnc(OC(F)F)c2)n1)C1(c2ccccc2F)CC1` [Compound 395, N-(1-(2-(difluoromethoxy)pyridin-4-yl)-1H-pyrazol-3-yl)-1-(2-fluorophenyl)cyclopropane-1-carboxamide]: the half-inhibitory concentration (IC50) was over 5000 nM. With `O=C(Nc1ccn(-c2ccnc(C(F)F)c2)n1)C1(c2ccccc2F)CC1` [Compound 396, N-[1-[2-(difluoromethyl)-4-pyridyl]pyrazol-3-yl]-1-(2-fluorophenyl)cyclopropanecarboxamide], the IC50 is over 5000 nM. The same measure, in the same setting: under `O=C(Nc1ccn(-c2ccc(C(F)F)nc2)n1)C1(c2ccccc2F)CC1` [Compound 397, N-[1-[6-(difluoromethyl)-3-pyridyl]pyrazol-3-yl]-1-(2-fluorophenyl)cyclopropanecarboxamide] stands over 5000 nM; under `Nc1ncc(-n2ccc(NC(=O)C3(c4ccccc4F)CC3)n2)cc1F` [Compound 399, N-[1-(6-amino-5-fluoro-3-pyridyl)pyrazol-3-yl]-1-(2-fluorophenyl)cyclopropanecarboxamide], 280 nM. The same measure, in the same setting: under `Cn1cc(-n2ccc(NC(=O)C3(c4ccccc4F)CC3)n2)nn1` [Compound 400, 1-(2-fluorophenyl)-N-(1-(1-methyl-1H-1,2,3-triazol-4-yl)-1H-pyrazol-3-yl)cyclopropane-1-carboxamide] stands over 5000 nM; under `COc1cc(-n2ccc(NC(=O)C3(c4ncccn4)CC3)n2)ccn1` [Compound 407, N-[1-(2-methoxy-4-pyridyl)pyrazol-3-yl]-1-pyrimidin-2-yl-cyclopropanecarboxamide], over 5000 nM. As to `COc1ncc(-n2ccc(NC(=O)C3(c4ccccc4F)CC3)n2)s1` [Compound 408, 1-(2-fluorophenyl)-N-[1-(2-methoxythiazol-5-yl)pyrazol-3-yl]cyclopropanecarboxamide], the IC50 is 1000 nM. Still for that read-out and setting: the value for `O=C(Nc1ccn(-c2ccc(OC(F)F)nc2)n1)C1(c2ccccc2F)CC1` [Compound 409, N-[1-[6-(difluoromethoxy)-3-pyridyl]pyrazol-3-yl]-1-(2-fluorophenyl)cyclopropanecarboxamide] was over 5000 nM. Regarding `O=C(Nc1ccn(-c2cnc(Cl)s2)n1)C1(c2ccccc2F)CC1` [Compound 410, N-[1-(2-chlorothiazol-5-yl)pyrazol-3-yl]-1-(2-fluorophenyl)cyclopropanecarboxamide], the half-inhibitory concentration (IC50) is 100 nM.

Regarding `COc1cnccc1-n1ccc(NC(=O)C2(c3ccccc3F)CC2)n1` [Compound 411, 1-(2-fluorophenyl)-N-[1-(3-methoxy-4-pyridyl)pyrazol-3-yl]cyclopropanecarboxamide], the half-maximal inhibitory concentration (IC50) was over 5000 nM. On the same count and under the same terms, under `Cc1nc(C)c(-n2ccc(NC(=O)C3(c4ccccc4F)CC3)n2)s1` [Compound 413, N-[1-(2,4-dimethylthiazol-5-yl)pyrazol-3-yl]-1-(2-fluorophenyl)cyclopropanecarboxamide] stands over 5000 nM; under `Cc1nn(C(F)F)cc1-n1ccc(NC(=O)C2(c3ccccc3F)CC2)n1` [Compound 414, N-[1-[1-(difluoromethyl)-3-methyl-pyrazol-4-yl]pyrazol-3-yl]-1-(2-fluorophenyl)cyclopropanecarboxamide], over 5000 nM; under `Cn1ncnc1-n1ccc(NC(=O)C2(c3ccccc3F)CC2)n1` [Compound 415, 1-(2-fluorophenyl)-N-[1-(2-methyl-1,2,4-triazol-3-yl)pyrazol-3-yl]cyclopropanecarboxamide], 90 nM. For the molecule `Cn1nccc1-n1ccc(NC(=O)C2(c3ccccc3F)CC2)n1` [Compound 417, 1-(2-fluorophenyl)-N-[1-(2-methylpyrazol-3-yl)pyrazol-3-yl]cyclopropanecarboxamide], the 50% inhibitory concentration (IC50) was found to be 290 nM.

For the molecule `O=C(Nc1ccn(-c2cccc(Cl)c2)n1)C1(c2ncccc2F)CC1` [Compound 418, N-(1-(3-chlorophenyl)-1H-pyrazol-3-yl)-1-(3-fluoropyridin-2-yl)cyclopropane-1-carboxamide], the IC50 was found to be 100 nM. On to `O=C(Nc1ccn(-c2ccncc2)n1)C1(c2ncccc2F)CC1` [Compound 422, 1-(3-fluoro-2-pyridyl)-N-[1-(4-pyridyl)pyrazol-3-yl]cyclopropanecarboxamide], for which the half-inhibitory concentration (IC50) was 200 nM. For `O=C(Nc1ccn(-c2cncc(F)c2)n1)C1(c2ncccc2F)CC1` [Compound 423, 1-(3-fluoropyridin-2-yl)-N-(1-(5-fluoropyridin-3-yl)-1H-pyrazol-3-yl)cyclopropane-1-carboxamide], the IC50 amounted to 46 nM. As for `O=C(Nc1ccn(-c2cnoc2)n1)C1(c2ccccc2F)CC1` [Compound 424, 1-(2-fluorophenyl)-N-(1-(isoxazol-4-yl)-1H-pyrazol-3-yl)cyclopropane-1-carboxamide], the IC50 is over 5000 nM.
